The text below walks through data of ChEMBL document CHEMBL1141353, “Three biscembranoids and their monomeric counterpart cembranoid, a biogenetic Diels-Alder precursor, from the soft coral Sarcophyton elegans” (J Nat Prod, 2007).

In one series the test system is Escherichia coli. Briefly: Antibacterial activity against Escherichia coli at 1.5 ug/ml. The format is functional, organism-based.
The nature of series [1]: Toxicity in brine shrimp assessed as survival rate after 24 hrs. In kind it is organism-based. The following applies: artemia salina, in vivo.

SMILES strings stand for the structures. Activity calls are given as the source filed them. The rule behind the calls is not given here.

For the molecule `COC(=O)[C@]12CC(=O)[C@H](C(C)C)CC(=O)[C@H](C)CCC[C@H](C)CC(=O)[C@H]1CC(C)=C1C[C@H](O)[C@@]3(C)O[C@@H](CC/C(C)=C/[C@@H]12)[C@@]1(C)CC[C@@H]3O1`, the outcome with Escherichia coli was Active.
Broadly, the LC50 is the concentration lethal to half of the exposed cells or organisms. `COC(=O)/C1=C/C(=O)C[C@@H](C)CCC[C@@H](C)C(=O)C[C@@H](C(C)C)C(=O)C1` [METHYL TETRAHYDROSARCOATE]: the LC50 at 24 h in series [1] was 1500 nM.
As to `COC(=O)[C@]12CC(=O)[C@H](C(C)C)CC(=O)[C@H](C)CCC[C@H](C)CC(=O)[C@H]1CC(C)=C1C[C@H](O)[C@]3(C)O[C@@H]3CC[C@]3(C)O[C@@H]3CC/C(C)=C/[C@@H]12` [DIEPOXYNYALOLIDE], the LC50 at 24 h in series [1] worked out at 1500 nM.
